Drawing on ChEMBL document CHEMBL1130033, “17 beta-(3-furyl)-5 beta-androstane-3 beta, 14 beta, 17 alpha-triol (PST 2238). A very potent antihypertensive agent with a novel mechanism of action” (J Med Chem, 1997), this text covers IC50 for one compound.

The target in the test is Sodium/potassium-transporting ATPase. Put plainly: Ability to displace [3H]ouabain from Na+/K+ ATPase in dog kidney. The class given is protein-complex assay, Canis lupus familiaris.

`C[C@]12CC[C@H](O)C[C@H]1CC[C@@H]1[C@@H]2CC[C@]2(C)[C@@](O)(c3ccoc3)CC[C@]12O` [ROSTAFUROXIN] registered an IC50 of 1500 nM.
